± gives the expanded uncertainty stated by the source.
Key:
[1] = xn = mol fraction of the nth substance listed; details: 101 kPa, Liquid
[2] = 101 kPa, Liquid

OCCCCO [1,4-butanediol] + OCCCO
[1], x1 = 1
Details	mass density [kg/m3]
293.15 K	1016.37 ± 0.49
298.15 K	1013.04 ± 0.51
303.15 K	1009.96 ± 0.53
308.15 K	1006.75 ± 0.55
313.15 K	1003.55 ± 0.57
318.15 K	1000.72 ± 0.59
323.15 K	997.8 ± 0.61
328.15 K	994.41 ± 0.64

OCCCCO [1,4-butanediol] + OCCO
mass density [kg/m3], [1]
Details	x1 = 0.0711	x1 = 0.1469	x1 = 0.2279	x1 = 0.3147	x1 = 0.4078	x1 = 0.5081	x1 = 0.6164	x1 = 0.7337	x1 = 0.8611	x1 = 1
293.15 K	1102.71 ± 0.6	1092.13 ± 0.58	1081.71 ± 0.57	1071.48 ± 0.56	1061.52 ± 0.54	1051.91 ± 0.53	1042.67 ± 0.52	1033.74 ± 0.51	1024.96 ± 0.5	1016.37 ± 0.49
298.15 K	1099.09 ± 0.61	1088.58 ± 0.6	1078.21 ± 0.59	1068.02 ± 0.57	1058.12 ± 0.56	1048.56 ± 0.55	1039.34 ± 0.54	1030.4 ± 0.53	1021.64 ± 0.52	1013.04 ± 0.51
303.15 K	1096.06 ± 0.63	1085.57 ± 0.62	1075.22 ± 0.61	1065.04 ± 0.59	1055.16 ± 0.58	1045.58 ± 0.57	1036.35 ± 0.56	1027.39 ± 0.55	1018.61 ± 0.54	1009.96 ± 0.53
308.15 K	1092.51 ± 0.65	1082.1 ± 0.64	1071.84 ± 0.63	1061.7 ± 0.61	1051.85 ± 0.6	1042.33 ± 0.59	1033.12 ± 0.58	1024.17 ± 0.57	1015.41 ± 0.56	1006.75 ± 0.55
313.15 K	1089.15 ± 0.67	1078.8 ± 0.66	1068.56 ± 0.65	1058.5 ± 0.64	1048.65 ± 0.62	1039.15 ± 0.61	1029.95 ± 0.6	1020.99 ± 0.59	1012.22 ± 0.58	1003.55 ± 0.57
318.15 K	1085.69 ± 0.7	1075.44 ± 0.68	1065.32 ± 0.67	1055.33 ± 0.66	1045.62 ± 0.64	1036.15 ± 0.63	1027.01 ± 0.62	1018.1 ± 0.61	1009.36 ± 0.6	1000.72 ± 0.59
323.15 K	1082.18 ± 0.72	1072.03 ± 0.7	1061.97 ± 0.69	1052.09 ± 0.68	1042.43 ± 0.67	1033.05 ± 0.65	1023.96 ± 0.64	1015.11 ± 0.63	1006.4 ± 0.62	997.8 ± 0.61
328.15 K	1078.33 ± 0.74	1068.25 ± 0.72	1058.28 ± 0.71	1048.46 ± 0.7	1038.86 ± 0.69	1029.53 ± 0.67	1020.51 ± 0.66	1011.66 ± 0.65	1002.99 ± 0.64	994.41 ± 0.64

OCCCO [propan-1,3-diol]
[2]
Details	mass density [kg/m3]
293.15 K	1053.66 ± 0.59
298.15 K	1050.29 ± 0.61
303.15 K	1047.09 ± 0.63
308.15 K	1043.92 ± 0.65
313.15 K	1040.61 ± 0.67
318.15 K	1037.6 ± 0.69
323.15 K	1034.51 ± 0.71
328.15 K	1031 ± 0.73

OCCO [1,2-ethanediol]
[2]
Details	mass density [kg/m3]
293.15 K	1113.55 ± 0.61
303.15 K	1106.82 ± 0.65
313.15 K	1099.8 ± 0.69
323.15 K	1092.59 ± 0.73

CC(O)CO (stereo not drawn) [1,2-propanediol]
[2]
Details	mass density [kg/m3]
293.15 K	1036.57 ± 0.54
298.15 K	1032.86 ± 0.56
303.15 K	1029.15 ± 0.58
308.15 K	1025.57 ± 0.6
313.15 K	1021.44 ± 0.62
318.15 K	1017.59 ± 0.64
323.15 K	1013.74 ± 0.66
328.15 K	1009.71 ± 0.68

CC(O)CO (stereo not drawn) [1,2-propanediol] + OCCCCO
[1], x2 = 0
Details	mass density [kg/m3]
293.15 K	1036.57 ± 0.54
298.15 K	1032.86 ± 0.56
303.15 K	1029.15 ± 0.58
308.15 K	1025.57 ± 0.6
313.15 K	1021.44 ± 0.62
318.15 K	1017.59 ± 0.64
323.15 K	1013.74 ± 0.66
328.15 K	1009.71 ± 0.68

OCCCCO [1,4-butanediol]
[2]
Details	mass density [kg/m3]
293.15 K	1016.37 ± 0.49
298.15 K	1013.04 ± 0.51
303.15 K	1009.96 ± 0.53
308.15 K	1006.75 ± 0.55
313.15 K	1003.55 ± 0.57
318.15 K	1000.72 ± 0.59
323.15 K	997.8 ± 0.61
328.15 K	994.41 ± 0.64

OCCCO [propan-1,3-diol] + OCCCCO
mass density [kg/m3], [1]
Details	293.15 K	298.15 K	303.15 K	308.15 K	313.15 K	318.15 K	323.15 K	328.15 K
x2 = 0	1053.66 ± 0.59	1050.29 ± 0.61	1047.09 ± 0.63	1043.92 ± 0.65	1040.61 ± 0.67	1037.6 ± 0.69	1034.51 ± 0.71	1031 ± 0.73
x2 = 0.0858	1049.89 ± 0.57	1046.56 ± 0.59	1043.39 ± 0.61	1040.26 ± 0.63	1036.99 ± 0.65	1034.04 ± 0.68	1030.99 ± 0.7	1027.53 ± 0.72
x2 = 0.1743	1046.21 ± 0.56	1042.87 ± 0.58	1039.74 ± 0.6	1036.61 ± 0.62	1033.39 ± 0.64	1030.48 ± 0.66	1027.5 ± 0.68	1024.08 ± 0.71
x2 = 0.2657	1042.49 ± 0.55	1039.2 ± 0.57	1036.07 ± 0.59	1032.95 ± 0.61	1029.75 ± 0.63	1026.88 ± 0.65	1023.9 ± 0.67	1020.5 ± 0.69
x2 = 0.3602	1038.78 ± 0.54	1035.48 ± 0.56	1032.39 ± 0.58	1029.26 ± 0.6	1026.07 ± 0.62	1023.21 ± 0.64	1020.26 ± 0.66	1016.86 ± 0.68
x2 = 0.4578	1035.05 ± 0.53	1031.77 ± 0.55	1028.69 ± 0.57	1025.57 ± 0.59	1022.39 ± 0.61	1019.53 ± 0.63	1016.6 ± 0.65	1013.22 ± 0.67
x2 = 0.5523	–	–	1024.89 ± 0.56	–	–	–	–	–
x2 = 0.5588	1031.27 ± 0.52	1027.98 ± 0.54	–	1021.77 ± 0.58	1018.61 ± 0.6	1015.78 ± 0.62	1012.86 ± 0.64	1009.51 ± 0.66
x2 = 0.6574	–	–	1021.16 ± 0.55	–	–	–	–	–
x2 = 0.6633	1027.52 ± 0.51	1024.23 ± 0.53	–	1018.03 ± 0.57	1014.87 ± 0.59	1012.06 ± 0.61	1009.17 ± 0.63	1005.8 ± 0.66
x2 = 0.7669	–	–	1017.41 ± 0.54	–	–	–	–	–
x2 = 0.7716	1023.77 ± 0.5	1020.48 ± 0.52	–	1014.27 ± 0.56	1011.08 ± 0.58	1008.27 ± 0.6	1005.36 ± 0.63	1001.99 ± 0.65
x2 = 0.881	–	–	1013.68 ± 0.54	–	–	–	–	–
x2 = 0.8837	1020.05 ± 0.5	1016.74 ± 0.52	–	1010.51 ± 0.56	1007.33 ± 0.58	1004.52 ± 0.6	1001.61 ± 0.62	998.24 ± 0.64

OCCCCO [1,4-butanediol] + CC(O)CO
mass density [kg/m3], [1]
Details	x1 = 0.0858	x1 = 0.1743	x1 = 0.2657	x1 = 0.3602	x1 = 0.4578	x1 = 0.5588	x1 = 0.6633	x1 = 0.7716	x1 = 0.8837	x1 = 1
293.15 K	1034.9 ± 0.53	1033.19 ± 0.52	1031.46 ± 0.52	1029.77 ± 0.51	1027.85 ± 0.51	1025.52 ± 0.51	1023.19 ± 0.5	1020.85 ± 0.5	1018.55 ± 0.49	1016.37 ± 0.49
298.15 K	1031.31 ± 0.55	1029.67 ± 0.54	1028 ± 0.54	1026.34 ± 0.53	1024.48 ± 0.53	1022.17 ± 0.53	1019.88 ± 0.52	1017.57 ± 0.52	1015.25 ± 0.51	1013.04 ± 0.51
303.15 K	1027.73 ± 0.57	1026.21 ± 0.56	1024.62 ± 0.56	1023.01 ± 0.55	1021.19 ± 0.55	1018.94 ± 0.55	1016.79 ± 0.54	1014.47 ± 0.54	1012.17 ± 0.53	1009.96 ± 0.53
308.15 K	1024.25 ± 0.59	1022.83 ± 0.59	1021.31 ± 0.58	1019.74 ± 0.58	1018 ± 0.57	1015.76 ± 0.57	1013.64 ± 0.56	1011.33 ± 0.56	1009.03 ± 0.55	1006.75 ± 0.55
313.15 K	1020.28 ± 0.61	1019 ± 0.61	1017.64 ± 0.6	1016.12 ± 0.6	1014.43 ± 0.59	1012.35 ± 0.59	1010.33 ± 0.58	1008.06 ± 0.58	1005.78 ± 0.57	1003.55 ± 0.57
318.15 K	1016.58 ± 0.63	1015.49 ± 0.63	1014.21 ± 0.62	1012.83 ± 0.62	1011.22 ± 0.61	1009.28 ± 0.61	1007.33 ± 0.6	1005.16 ± 0.6	1002.94 ± 0.59	1000.72 ± 0.59
323.15 K	1012.91 ± 0.65	1011.97 ± 0.65	1010.78 ± 0.64	1009.47 ± 0.64	1007.97 ± 0.63	1006.13 ± 0.63	1004.3 ± 0.62	1002.18 ± 0.62	1000.03 ± 0.62	997.8 ± 0.61
328.15 K	1009 ± 0.67	1008.2 ± 0.67	1007.11 ± 0.66	1005.84 ± 0.66	1004.39 ± 0.66	1002.63 ± 0.65	1000.83 ± 0.65	998.81 ± 0.64	996.69 ± 0.64	994.41 ± 0.64

OCCO [1,2-ethanediol] + OCCCCO
[1], x2 = 0
Details	mass density [kg/m3]
293.15 K	1113.55 ± 0.61
303.15 K	1106.82 ± 0.65
313.15 K	1099.8 ± 0.69
323.15 K	1092.59 ± 0.73

Source: the NIST ThermoML archive (doi:10.1021/je700499d)
